Test results from BindingDB's records for doi:10.1016/0014-2999(89)90363-4 (Novo Industri, 1989).
Where “and” joins values, the source holds several entries; their conditions need not be identical. Equal values may be shown once. Where a name gives a salt, the structure may show the parent alone.

Columns and labels:
[1] = biological target: T1, Alpha-2C adrenergic receptor (Rattus norvegicus, UniProt P22086)
T1 sequence (P22086 whole entry): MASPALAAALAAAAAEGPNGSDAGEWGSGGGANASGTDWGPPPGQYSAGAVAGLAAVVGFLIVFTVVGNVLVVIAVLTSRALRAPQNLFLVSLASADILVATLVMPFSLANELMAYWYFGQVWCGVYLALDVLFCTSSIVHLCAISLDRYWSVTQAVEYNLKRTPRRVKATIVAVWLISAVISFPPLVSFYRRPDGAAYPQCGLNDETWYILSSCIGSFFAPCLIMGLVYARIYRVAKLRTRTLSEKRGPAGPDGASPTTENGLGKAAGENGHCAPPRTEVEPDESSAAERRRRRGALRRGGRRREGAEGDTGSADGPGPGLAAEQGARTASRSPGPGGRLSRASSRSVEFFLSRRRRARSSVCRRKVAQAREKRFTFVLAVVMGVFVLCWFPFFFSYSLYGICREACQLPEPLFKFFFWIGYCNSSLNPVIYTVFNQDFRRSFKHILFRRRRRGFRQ

D(2) dopamine receptor = D(2) dopamine receptor (Rattus norvegicus, UniProt P61169)
[2] = biological target: Beta-1 adrenergic receptor (Rattus norvegicus, UniProt P18090)
[3] = biological target: Gamma-aminobutyric acid receptor subunit alpha-1 (Rattus norvegicus, UniProt P62813)
D(1A) dopamine receptor = D(1A) dopamine receptor (Rattus norvegicus, UniProt P18901)
[4] = biological target: T2, Muscarinic acetylcholine receptor M2 (Rattus norvegicus, UniProt P10980)
T2 sequence (P10980 whole entry): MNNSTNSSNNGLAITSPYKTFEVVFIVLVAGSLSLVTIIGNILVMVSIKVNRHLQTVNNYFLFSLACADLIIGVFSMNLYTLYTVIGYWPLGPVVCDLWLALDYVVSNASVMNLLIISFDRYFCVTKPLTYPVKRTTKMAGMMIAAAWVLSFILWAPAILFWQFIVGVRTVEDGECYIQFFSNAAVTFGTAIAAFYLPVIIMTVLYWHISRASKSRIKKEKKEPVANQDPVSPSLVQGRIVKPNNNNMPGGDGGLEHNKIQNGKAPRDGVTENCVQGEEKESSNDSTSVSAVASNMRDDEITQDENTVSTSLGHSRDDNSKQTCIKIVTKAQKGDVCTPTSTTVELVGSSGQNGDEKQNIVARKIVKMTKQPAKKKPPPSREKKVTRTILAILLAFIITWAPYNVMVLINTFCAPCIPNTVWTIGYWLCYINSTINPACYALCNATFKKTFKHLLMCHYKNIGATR

Histamine H1 receptor = Histamine H1 receptor (Rattus norvegicus, UniProt P31390)
[5] = biological target: T3, 5-hydroxytryptamine receptor 1A (Rattus norvegicus, UniProt P19327)
T3 sequence (P19327 whole entry): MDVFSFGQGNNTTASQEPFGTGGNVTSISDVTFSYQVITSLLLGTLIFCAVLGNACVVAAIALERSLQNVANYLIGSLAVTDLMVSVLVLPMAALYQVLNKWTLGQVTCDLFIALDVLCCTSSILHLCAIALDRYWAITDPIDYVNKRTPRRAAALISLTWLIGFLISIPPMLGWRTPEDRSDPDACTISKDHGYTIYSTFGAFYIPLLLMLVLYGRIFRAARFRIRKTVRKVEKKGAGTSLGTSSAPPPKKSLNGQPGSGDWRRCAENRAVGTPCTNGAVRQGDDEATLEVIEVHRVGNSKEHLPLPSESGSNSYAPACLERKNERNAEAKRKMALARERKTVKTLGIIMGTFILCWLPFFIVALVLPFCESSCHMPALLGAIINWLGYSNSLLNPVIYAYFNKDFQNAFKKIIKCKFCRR

[6] = biological target: Norepinephrine transporter (Rattus norvegicus, UniProt Q9JIA2)
[7] = biological target: Sodium-dependent serotonin transporter (Rattus norvegicus, UniProt P31652)
[8] = biological target: 5-hydroxytryptamine receptor 2A (Rattus norvegicus, UniProt P14842)
[9] = biological target: T4, Alpha-1A adrenergic receptor (Rattus norvegicus, UniProt P43140)
T4 sequence (P43140 whole entry): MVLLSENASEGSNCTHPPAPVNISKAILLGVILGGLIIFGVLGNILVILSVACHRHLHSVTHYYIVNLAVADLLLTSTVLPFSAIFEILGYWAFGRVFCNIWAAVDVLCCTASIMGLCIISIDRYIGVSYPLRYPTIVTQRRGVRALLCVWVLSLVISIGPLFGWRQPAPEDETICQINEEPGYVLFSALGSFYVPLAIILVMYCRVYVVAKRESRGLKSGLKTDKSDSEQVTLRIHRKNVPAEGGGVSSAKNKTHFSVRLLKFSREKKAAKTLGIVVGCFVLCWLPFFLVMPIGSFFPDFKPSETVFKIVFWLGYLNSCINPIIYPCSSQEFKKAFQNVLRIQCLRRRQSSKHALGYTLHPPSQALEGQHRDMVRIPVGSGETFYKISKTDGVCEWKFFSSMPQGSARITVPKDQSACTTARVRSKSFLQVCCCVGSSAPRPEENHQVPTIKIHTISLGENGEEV

Sequence of Sodium-dependent serotonin transporter (P31652 whole entry): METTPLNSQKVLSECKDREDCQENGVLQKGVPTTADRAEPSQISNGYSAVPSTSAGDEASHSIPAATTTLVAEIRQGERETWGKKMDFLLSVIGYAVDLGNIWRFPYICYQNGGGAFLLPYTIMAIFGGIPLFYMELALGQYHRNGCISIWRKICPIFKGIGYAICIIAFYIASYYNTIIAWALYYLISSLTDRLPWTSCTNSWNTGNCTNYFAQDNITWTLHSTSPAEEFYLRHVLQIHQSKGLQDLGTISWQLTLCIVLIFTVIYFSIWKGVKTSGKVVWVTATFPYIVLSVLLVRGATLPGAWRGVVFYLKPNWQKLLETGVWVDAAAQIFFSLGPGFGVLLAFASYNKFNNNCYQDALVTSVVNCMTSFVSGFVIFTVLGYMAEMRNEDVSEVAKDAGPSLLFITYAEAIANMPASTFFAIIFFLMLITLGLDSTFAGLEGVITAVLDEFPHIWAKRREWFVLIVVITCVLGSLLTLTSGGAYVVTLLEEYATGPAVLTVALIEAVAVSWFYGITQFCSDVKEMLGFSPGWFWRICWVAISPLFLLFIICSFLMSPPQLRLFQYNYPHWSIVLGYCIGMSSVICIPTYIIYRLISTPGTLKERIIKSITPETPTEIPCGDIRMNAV
Sequence of D(1A) dopamine receptor (P18901 whole entry): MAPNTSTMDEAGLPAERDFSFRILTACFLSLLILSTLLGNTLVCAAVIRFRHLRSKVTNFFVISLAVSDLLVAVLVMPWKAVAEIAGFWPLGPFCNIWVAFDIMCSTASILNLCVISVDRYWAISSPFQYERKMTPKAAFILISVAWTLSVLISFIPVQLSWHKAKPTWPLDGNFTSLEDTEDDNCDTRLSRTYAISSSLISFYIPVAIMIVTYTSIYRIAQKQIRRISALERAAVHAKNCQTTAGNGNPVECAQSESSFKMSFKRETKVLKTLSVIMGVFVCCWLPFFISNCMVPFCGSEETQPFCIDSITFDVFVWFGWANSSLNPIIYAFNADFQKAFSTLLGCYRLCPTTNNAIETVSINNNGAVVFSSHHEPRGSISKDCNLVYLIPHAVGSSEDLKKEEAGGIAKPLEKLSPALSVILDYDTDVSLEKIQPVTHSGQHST
Sequence of Histamine H1 receptor (P31390 whole entry): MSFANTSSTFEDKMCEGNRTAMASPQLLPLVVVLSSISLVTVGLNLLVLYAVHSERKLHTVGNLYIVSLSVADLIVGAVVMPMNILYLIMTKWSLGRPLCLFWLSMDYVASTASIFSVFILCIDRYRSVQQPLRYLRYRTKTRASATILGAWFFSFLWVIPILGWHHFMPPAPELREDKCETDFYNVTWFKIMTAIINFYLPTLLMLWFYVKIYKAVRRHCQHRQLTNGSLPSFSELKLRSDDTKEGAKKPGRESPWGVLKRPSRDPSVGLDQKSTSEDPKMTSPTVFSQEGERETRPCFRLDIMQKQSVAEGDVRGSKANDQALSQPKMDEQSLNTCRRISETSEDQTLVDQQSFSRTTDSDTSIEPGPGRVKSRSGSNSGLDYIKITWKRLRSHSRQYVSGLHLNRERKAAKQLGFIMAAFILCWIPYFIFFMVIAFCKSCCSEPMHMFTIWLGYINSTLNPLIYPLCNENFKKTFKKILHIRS
Sequence of D(2) dopamine receptor (P61169 whole entry): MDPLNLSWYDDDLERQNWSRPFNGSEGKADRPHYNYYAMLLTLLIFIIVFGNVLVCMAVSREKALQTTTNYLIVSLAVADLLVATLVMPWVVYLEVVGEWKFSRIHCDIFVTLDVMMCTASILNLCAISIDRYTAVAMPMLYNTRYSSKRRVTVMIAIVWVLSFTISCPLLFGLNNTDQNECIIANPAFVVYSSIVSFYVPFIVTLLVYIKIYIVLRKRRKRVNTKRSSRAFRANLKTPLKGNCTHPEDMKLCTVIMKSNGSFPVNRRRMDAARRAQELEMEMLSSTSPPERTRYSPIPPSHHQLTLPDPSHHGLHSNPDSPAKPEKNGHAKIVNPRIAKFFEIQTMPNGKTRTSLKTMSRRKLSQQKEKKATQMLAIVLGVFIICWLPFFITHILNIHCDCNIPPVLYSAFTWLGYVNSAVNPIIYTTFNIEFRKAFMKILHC
Sequence of Beta-1 adrenergic receptor (P18090 whole entry): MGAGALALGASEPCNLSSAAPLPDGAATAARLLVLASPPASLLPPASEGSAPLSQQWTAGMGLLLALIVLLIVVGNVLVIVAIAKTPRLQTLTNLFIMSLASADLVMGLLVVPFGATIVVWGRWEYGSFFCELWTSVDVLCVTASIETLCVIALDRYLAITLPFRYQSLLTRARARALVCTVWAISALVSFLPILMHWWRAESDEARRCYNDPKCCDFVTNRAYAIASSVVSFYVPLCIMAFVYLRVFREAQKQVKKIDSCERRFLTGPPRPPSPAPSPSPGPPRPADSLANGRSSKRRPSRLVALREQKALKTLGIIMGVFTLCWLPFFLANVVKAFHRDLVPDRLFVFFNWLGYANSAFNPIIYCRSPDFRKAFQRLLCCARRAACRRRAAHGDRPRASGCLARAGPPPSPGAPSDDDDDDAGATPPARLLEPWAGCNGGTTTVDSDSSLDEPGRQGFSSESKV
Sequence of Gamma-aminobutyric acid receptor subunit alpha-1 (P62813 whole entry): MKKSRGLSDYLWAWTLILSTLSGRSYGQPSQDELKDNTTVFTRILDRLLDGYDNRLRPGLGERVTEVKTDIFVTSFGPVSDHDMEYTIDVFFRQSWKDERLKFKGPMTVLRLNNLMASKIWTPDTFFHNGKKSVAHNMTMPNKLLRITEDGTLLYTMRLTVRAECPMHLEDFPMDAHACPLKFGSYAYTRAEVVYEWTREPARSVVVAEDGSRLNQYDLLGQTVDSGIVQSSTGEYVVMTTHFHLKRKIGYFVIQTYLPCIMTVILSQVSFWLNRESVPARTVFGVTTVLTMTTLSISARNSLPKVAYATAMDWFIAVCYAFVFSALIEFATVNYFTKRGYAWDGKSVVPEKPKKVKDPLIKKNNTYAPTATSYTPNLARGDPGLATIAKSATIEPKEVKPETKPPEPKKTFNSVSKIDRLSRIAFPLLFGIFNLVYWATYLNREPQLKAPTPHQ
Sequence of 5-hydroxytryptamine receptor 2A (P14842 whole entry): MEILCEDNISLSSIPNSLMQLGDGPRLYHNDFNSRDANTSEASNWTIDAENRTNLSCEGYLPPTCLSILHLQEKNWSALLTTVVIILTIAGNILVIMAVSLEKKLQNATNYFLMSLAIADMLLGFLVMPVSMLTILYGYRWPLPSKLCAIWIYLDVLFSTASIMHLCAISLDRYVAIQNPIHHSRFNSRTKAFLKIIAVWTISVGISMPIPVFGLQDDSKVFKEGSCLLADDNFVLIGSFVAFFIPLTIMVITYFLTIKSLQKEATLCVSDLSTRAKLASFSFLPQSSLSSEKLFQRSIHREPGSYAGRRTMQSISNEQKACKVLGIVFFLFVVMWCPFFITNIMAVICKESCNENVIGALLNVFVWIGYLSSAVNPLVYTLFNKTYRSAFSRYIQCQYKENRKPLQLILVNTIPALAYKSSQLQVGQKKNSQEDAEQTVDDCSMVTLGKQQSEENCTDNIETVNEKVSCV

SMILES | Ki [1] | Ki (D(2) dopamine receptor) | Ki [2] | Ki [3] | Ki (D(1A) dopamine receptor) | Ki [4] | Ki (Histamine H1 receptor) | Ki [5] | Ki [6] | Ki [7] | Ki [8] | Ki [9]
CN(C)CCCN1c2ccccc2CCc2ccccc21 | 5.7 µM | 0.942 µM | > 10 µM | > 10 µM | 3 µM | 2.3 µM | 0.002 µM | > 10 µM | – | – | – | –
O[C@]1(c2ccc(Cl)cc2)c2ccccc2C2=NCCN21 [Mazanor] | – | – | – | – | – | – | – | – | 0.008 µM | – | – | –
C[C@H](N)Cc1ccccc1 [beta-aminopropylbenzene] | – | – | – | – | – | – | – | – | 0.059 µM and 0.058 µM | – | – | –
NCC(O)c1ccc(O)c(O)c1 (stereo not drawn) [Noradrenaline,(+)] | – | – | – | – | – | – | – | – | 0.25 µM | 1 µM | – | –
Fc1ccc(C(OCCN2CCN(CCCc3ccccc3)CC2)c2ccc(F)cc2)cc1 [Vanoxerine] | 7 µM | 0.27 µM | > 10 µM | > 10 µM and 8 µM | 1 µM | > 10 µM | 0.018 µM | 3.6 µM | – | – | 0.189 µM | 3.5 µM
CN(C)CCCC1(c2ccc(F)cc2)OCc2cc(C#N)ccc21 (stereo not drawn) [CITALOPRAM HYDROBROMIDE] | > 10 µM | > 10 µM | > 10 µM | > 10 µM | > 10 µM | > 10 µM | – | > 10 µM | – | – | – | > 10 µM
CC(NC(C)(C)C)C(=O)c1cccc(Cl)c1 (stereo not drawn) [BUPROPION HYDROCHLORIDE] | > 10 µM | > 10 µM | > 10 µM | – | > 10 µM | > 10 µM | – | – | 0.94 µM | – | – | > 10 µM
NCCc1c[nH]c2ccc(O)cc12 [[3H]-5-HT] | – | – | – | – | – | – | – | – | 1 µM | – | – | –
NCCc1ccc(O)c(O)c1 | – | – | – | – | – | – | – | – | 1 µM | 1 µM | – | –
CN1Cc2c(N)cccc2[C@H](c2ccccc2)C1 [(+/-)-2-Methyl-4-phenyl-1,2,3,4-tetrahydro-isoquinolin-8-ylamine] | > 10 µM | > 10 µM | > 10 µM | > 10 µM | > 10 µM | > 10 µM | 0.035 µM | > 10 µM | 0.0112 µM | – | – | > 10 µM
COc1ccc2c(c1)CN(C)CC2c1ccc(Cl)c(Cl)c1 (stereo not drawn) | – | – | – | – | – | – | – | – | 0.0157 µM | – | – | –
COC(=O)[C@@H](c1ccccc1)[C@@H]1CCCCN1 | – | – | – | – | – | – | – | – | 0.103 µM | 1 µM | – | –
